According to paper PMC7181660, “A novel specific PERK activator reduces toxicity and extends survival in Huntington's disease models” (Scientific Reports, 2020):

Tests used:
Experiment in all cases: biochemical
Type in all cases: biochemical
panel of 391 kinases [1] = molecular target: panel of 391 kinases (Homo sapiens, UniProt P35916); settings: FLT4/VEGFR3, MK-28 1 µM, ATP 1 µM
panel of 391 kinases [2] = molecular target: panel of 391 kinases (Homo sapiens, UniProt Q92630); settings: DYRK2, MK-28 1 µM, ATP 1 µM
panel of 391 kinases [3] = molecular target: panel of 391 kinases (Homo sapiens, UniProt P54764); settings: EPHA4, MK-28 1 µM, ATP 1 µM
panel of 391 kinases [4] = molecular target: panel of 391 kinases (Homo sapiens, UniProt Q9BXA6); settings: SSTK/TSSK6, MK-28 1 µM, ATP 1 µM
panel of 391 kinases [5] = molecular target: panel of 391 kinases (Homo sapiens, UniProt O75716); settings: STK16, MK-28 1 µM, ATP 1 µM
panel of 391 kinases [6] = molecular target: panel of 391 kinases (Homo sapiens, UniProt O60285); settings: ARK5/NUAK1, MK-28 1 µM, ATP 1 µM
panel of 391 kinases [7] = molecular target: panel of 391 kinases (Homo sapiens, UniProt P52564); settings: MKK6, MK-28 1 µM, ATP 1 µM
panel of 391 kinases [8] = molecular target: panel of 391 kinases (Homo sapiens, UniProt P11362); settings: FGFR1, MK-28 1 µM, ATP 1 µM
panel of 391 kinases [9] = molecular target: panel of 391 kinases (Homo sapiens, UniProt P68400); settings: CK2a, MK-28 1 µM, ATP 1 µM
panel of 391 kinases [10] = molecular target: panel of 391 kinases (Homo sapiens, UniProt Q6DT37); settings: DMPK2, MK-28 1 µM, ATP 1 µM
panel of 391 kinases [11] = molecular target: panel of 391 kinases (Homo sapiens, UniProt Q9H093); settings: SNARK/NUAK2, MK-28 1 µM, ATP 1 µM
panel of 391 kinases [12] = molecular target: panel of 391 kinases (Homo sapiens, UniProt Q00537); settings: CDK17/cyclin Y (PCTK2), MK-28 1 µM, ATP 1 µM
panel of 391 kinases [13] = molecular target: panel of 391 kinases (Homo sapiens, UniProt P29323); settings: EPHB2, MK-28 1 µM, ATP 1 µM
panel of 391 kinases [14] = molecular target: panel of 391 kinases (Homo sapiens, UniProt P08631); settings: HCK, MK-28 1 µM, ATP 1 µM
panel of 391 kinases [15] = molecular target: panel of 391 kinases (Homo sapiens, UniProt P54760); settings: EPHB4; MK-28 1 µM; ATP 1 µM; read-out: % Enzyme Activity (relative to DMSO controls)
panel of 391 kinases [16] = molecular target: panel of 391 kinases (Homo sapiens, UniProt Q14164); settings: IKKe/IKBKE, MK-28 1 µM, ATP 1 µM
panel of 391 kinases [17] = molecular target: panel of 391 kinases (Homo sapiens, UniProt Q9Y3S1); settings: WNK2, MK-28 1 µM, ATP 1 µM
panel of 391 kinases [18] = molecular target: panel of 391 kinases (Homo sapiens, UniProt Q07002); settings: CDK18/cyclin Y (PCTK3), MK-28 1 µM, ATP 1 µM
panel of 391 kinases [19] = molecular target: panel of 391 kinases (Homo sapiens, UniProt P16234); settings: PDGFRa, MK-28 1 µM, ATP 1 µM
panel of 391 kinases [20] = molecular target: panel of 391 kinases (Homo sapiens, UniProt Q9H4A3); settings: WNK1, MK-28 1 µM, ATP 1 µM
panel of 391 kinases [21] = molecular target: panel of 391 kinases (Homo sapiens, UniProt Q86UX6); settings: STK32C/YANK3, MK-28 1 µM, ATP 1 µM
panel of 391 kinases [22] = molecular target: panel of 391 kinases (Homo sapiens, UniProt Q9Y5S2); settings: MRCKb/CDC42BPB, MK-28 1 µM, ATP 1 µM
panel of 391 kinases [23] = molecular target: panel of 391 kinases (Homo sapiens, UniProt O75582); settings: MSK1/RPS6KA5, MK-28 1 µM, ATP 1 µM
panel of 391 kinases [24] = molecular target: panel of 391 kinases (Homo sapiens, UniProt Q9Y2U5); settings: MEKK2, MK-28 1 µM, ATP 1 µM
panel of 391 kinases [25] = molecular target: panel of 391 kinases (Homo sapiens, UniProt P22694); settings: PKAcb, MK-28 1 µM, ATP 1 µM
panel of 391 kinases [26] = molecular target: panel of 391 kinases (Homo sapiens, UniProt Q13882); settings: BRK, MK-28 1 µM, ATP 1 µM
[27] = read-out: % Enzyme Activity (relative to DMSO controls)

Compound: CN(/N=C\c1ccc(O)c(O)c1)c1nc(-c2ccccc2)cc(-c2ccccc2)n1 [MK-28]
- % Enzyme Activity (relative to DMSO controls) (panel of 391 kinases [1]): 92.88%
- remaining activity at 1 µM (panel of 391 kinases [1]; [27]): 94.1%
- % Enzyme Activity (relative to DMSO controls) (panel of 391 kinases [2]): 100.55%
- remaining activity at 1 µM (panel of 391 kinases [2]; [27]): 101%
- % Enzyme Activity (relative to DMSO controls) (panel of 391 kinases [3]): 100.54%
- remaining activity at 1 µM (panel of 391 kinases [3]; [27]): 101%
- % Enzyme Activity (relative to DMSO controls) (panel of 391 kinases [4]): 97.30%
- remaining activity at 1 µM (panel of 391 kinases [4]; [27]): 97.6%
- % Enzyme Activity (relative to DMSO controls) (panel of 391 kinases [5]): 108.93%
- remaining activity at 1 µM (panel of 391 kinases [5]; [27]): 109%
- % Enzyme Activity (relative to DMSO controls) (panel of 391 kinases [6]): 91.19%
- remaining activity at 1 µM (panel of 391 kinases [6]; [27]): 93.8%
- % Enzyme Activity (relative to DMSO controls) (panel of 391 kinases [7]): 94.11%
- remaining activity at 1 µM (panel of 391 kinases [7]; [27]): 95.6%
- % Enzyme Activity (relative to DMSO controls) (panel of 391 kinases [8]): 103.69%
- remaining activity at 1 µM (panel of 391 kinases [8]; [27]): 105%
- % Enzyme Activity (relative to DMSO controls) (panel of 391 kinases [9]): 76.99%
- remaining activity at 1 µM (panel of 391 kinases [9]; [27]): 81.1%
- % Enzyme Activity (relative to DMSO controls) (panel of 391 kinases [10]): 101.16%
- remaining activity at 1 µM (panel of 391 kinases [10]; [27]): 106%
- % Enzyme Activity (relative to DMSO controls) (panel of 391 kinases [11]): 94.11%
- remaining activity at 1 µM (panel of 391 kinases [11]; [27]): 95.6%
- % Enzyme Activity (relative to DMSO controls) (panel of 391 kinases [12]): 104.03%
- remaining activity at 1 µM (panel of 391 kinases [12]; [27]): 109%
- % Enzyme Activity (relative to DMSO controls) (panel of 391 kinases [13]): 94.59%
- remaining activity at 1 µM (panel of 391 kinases [13]; [27]): 95.4%
- % Enzyme Activity (relative to DMSO controls) (panel of 391 kinases [14]): 73.97%
- remaining activity at 1 µM (panel of 391 kinases [14]; [27]): 75.6%
- remaining activity at 1 µM (panel of 391 kinases [15]): 92.8%
- % Enzyme Activity (relative to DMSO controls) (panel of 391 kinases [16]): 93.45%
- remaining activity at 1 µM (panel of 391 kinases [16]; [27]): 96%
- % Enzyme Activity (relative to DMSO controls) (panel of 391 kinases [17]): 89.30%
- remaining activity at 1 µM (panel of 391 kinases [17]; [27]): 90.7%
- % Enzyme Activity (relative to DMSO controls) (panel of 391 kinases [18]): 109.27%
- remaining activity at 1 µM (panel of 391 kinases [18]; [27]): 111%
- % Enzyme Activity (relative to DMSO controls) (panel of 391 kinases [19]): 97.43%
- remaining activity at 1 µM (panel of 391 kinases [19]; [27]): 97.7%
- % Enzyme Activity (relative to DMSO controls) (panel of 391 kinases [20]): 103.91%
- remaining activity at 1 µM (panel of 391 kinases [20]; [27]): 104%
- % Enzyme Activity (relative to DMSO controls) (panel of 391 kinases [21]): 104.62%
- remaining activity at 1 µM (panel of 391 kinases [21]; [27]): 112%
- % Enzyme Activity (relative to DMSO controls) (panel of 391 kinases [22]): 100.39%
- remaining activity at 1 µM (panel of 391 kinases [22]; [27]): 101%
- % Enzyme Activity (relative to DMSO controls) (panel of 391 kinases [23]): 97.92%
- remaining activity at 1 µM (panel of 391 kinases [23]; [27]): 98.4%
- % Enzyme Activity (relative to DMSO controls) (panel of 391 kinases [24]): 91.93%
- remaining activity at 1 µM (panel of 391 kinases [24]; [27]): 94%
- % Enzyme Activity (relative to DMSO controls) (panel of 391 kinases [25]): 95.23%
- remaining activity at 1 µM (panel of 391 kinases [25]; [27]): 99.2%
- % Enzyme Activity (relative to DMSO controls) (panel of 391 kinases [26]): 102.30%
- remaining activity at 1 µM (panel of 391 kinases [26]; [27]): 104%
